Here are results for two compounds from PMC8163982, “Partial agonism improves the anti-hyperglycaemic efficacy of an oxyntomodulin-derived GLP-1R/GCGR co-agonist” (Molecular Metabolism, 2021).

Where a SMILES comes first, the peptide text is derived from it. [ ]: non-standard residue; d: D form. Aib = CC(C)(N)C(=O)O

Holding throughout (type): cell-based
For experiment [1], the target named is T1, SNAP-GLP-1R (Homo sapiens, UniProt P43220).
T1 construct: expressed in transfected cells
Put plainly: High content imaging assay for SNAP-GLP-1R internalisation. Conditions: high content analysis, mean ± SEM, n = 4, read-out: HCA assay (HEK293-SNAP-GLP-1R) pEC50 (converted). The method, then: The assay was adapted from a previously described method. HEK293T cells were seeded in black clear-bottom plates coated with 0.1% poly-D-lysine and assayed 24 h after transfection with SNAP-tagged GLP-1R or GCGR plasmid DNA (0.1 μg per well). The cells were labelled with the cleavable SNAP-tag probe BG-S-S-549 (a gift from New England Biolabs) in complete medium for 30 min at room temperature. After washing, fresh serum-free medium ± agonist was added. At the end of incubation, the medium was removed and the wells were treated with for 5 min at 4 °C with Mesna (100 mM in alkaline TNE buffer at a pH of 8.6) to remove BG-S-S-549 bound to residual surface receptors without affecting the internalised receptor population or with alkaline TNE buffer alone. After washing, phase contrast and epifluorescence cellular imaging at 20× magnification was performed, followed by processing as previously described to quantify the amount of internalised receptor from the fluorescence intensity readings.

The target in experiment [2] is T1, SNAP-GLP-1R. Briefly: GLP-1R internalisation by DERET in HEK293-SNAP-GLP-1R cells. Conditions: average response of last 3 time points of 30 min, mean ± SEM, n = 5, read-out: DERET (HEK293-SNAP-GLP-1R) pEC50 (converted). The method, then: The assay was performed as previously described. HEK-SNAP-GLP-1R cells were labelled using 40 nM of SNAP-Lumi4-Tb in complete medium for 60 min at room temperature. After washing, the cells were resuspended in HBSS containing 24 μM of fluorescein and dispensed into 96-well white plates. A baseline read was serially recorded for 5 min using a FlexStation 3 instrument at 37 °C in TR-FRET mode using the following settings: λex at 340 nm, λem at 520 and 620 nm, auto cut-off, delay of 400 μs, and integration time of 1500 μs? Ligands were then added, after which the signals were repeatedly recorded for 30 min. The fluorescence signals were expressed ratiometrically after first subtracting signals from wells containing 24 μM of fluorescein but no cells. Internalisation was quantified as the AUC relative to the individual well baseline, and concentration-response curves were generated with Prism 8.0.

Experiment [3] deals with T2, GLP-1R (Homo sapiens, UniProt P43220). Briefly: cAMP production (HTRF) in PathHunter CHO-K1 cells expressing GLP-1R. Set-up: host or cells: PathHunter CHO-K1-βarr2-EA. Conditions: 30 min, mean ± SEM, n = 6; for EC50: 37 °C, serum-free medium, no phosphodiesterase inhibitors, read-out: GLP-1R cAMP (CHO–K1) pEC50 (converted); for Emax: CHO-K1, normalised to globally fitted maximum response. The method, then:
HEK293T cells were maintained in DMEM supplemented with 10% FBS and 1% penicillin/streptomycin. PathHunter CHO–K1-βarr2-EA cells stably expressing human GLP-1R, GCGR, or GIPR and PathHunter CHO–K1-βarr1-EA cells stably expressing GCGR were obtained from DiscoverX and maintained in Ham's F12 medium with 10% FBS and 1% penicillin/streptomycin. Stable HEK293-SNAP-GLP-1R cells were maintained in DMEM supplemented with 10% FBS, 1% penicillin/streptomycin, and 1 mg/ml of G418. INS-1 832/3 cells, a gift from Professor Chris Newgard (Duke University), were maintained in RPMI with 11 mM of glucose supplemented with 10% FBS, 10 mM of HEPES, 1 mM of pyruvate, 50 μM of β-mercaptoethanol, and 1% penicillin/streptomycin. Huh7 cells stably expressing human GCGR (Huh7-GCGR) were maintained in DMEM supplemented with 10% FBS, 1 mg/ml of G418, and 1% penicillin/streptomycin.
PathHunter cells were stimulated with the indicated concentration of agonist for 30 min at 37 °C in serum-free medium without phosphodiesterase inhibitors. INS-1 832/3 cells were stimulated with the indicated concentration of agonist for 10 min at 37 °C in serum-free medium with 100 μM of 3-isobutyl-1-methylxanthine (IBMX). Primary dispersed mouse islet cells prepared by triturating intact islets in 0.05% trypsin/EDTA for 3 min at 37 °C were stimulated with the indicated concentration of agonist for 5 min at 37 °C in serum-free medium with 11 mM of glucose and 500 μM of IBMX. Primary mouse hepatocytes were stimulated in serum-free medium with 100 μM of IBMX for 10 min or 16 h in serum-free medium with 100 μM of IBMX added for the final 10 min of incubation. Huh7-GCGR cells were stimulated in serum-free medium without phosphodiesterase inhibitors for 10 min or for 16 h in serum-free medium. Where relevant, forskolin (10 μM) was added as a positive or normalisation control. At the end of each incubation, cAMP was then assayed by HTRF (Cisbio cAMP Dynamic 2) and concentration-response curves were constructed with 3-parameter curve fitting using Prism 8.0.
A general note: Cyclic AMP is a second messenger, typically raised through Gs and lowered through Gi signalling.

The target in experiment [4] is GCGR (Homo sapiens, UniProt P47871). Put plainly: NanoBiT β-arrestin-2 recruitment to GCGR-SmBiT in HEK293T cells. Set-up: expressed in transfected cells; host or cells: HEK293T. The settings on record: SRB103 pair, mean ± SEM, n = 6; for Emax: HEK-293T, normalised to full agonist response, read-out: GCGR βarr2 (HEK293T) Emax; for EC50: 3-parameter fit, read-out: GCGR βarr2 (HEK293T) pEC50 (converted). Background: Arrestin recruitment assays detect the binding of arrestin to an activated receptor.

Experiment [5] concerns the target T2, GLP-1R. Put plainly: NanoBiT β-arrestin-2 recruitment to GLP-1R-SmBiT in HEK293T cells. The settings on record: SRB103 pair, mean ± SEM, n = 6; for Emax: HEK-293T, normalised to full agonist response, read-out: GLP-1R βarr2 (HEK293T) Emax; for EC50: 3-parameter fit, read-out: GLP-1R βarr2 (HEK293T) pEC50 (converted). As to the method:
The assay was performed as previously described. […] (gifts from Professor Nevin Lambert, Medical College of Georgia) or 0.05 μg of GLP-1R-SmBiT and 0.05 μg of LgBiT-β-arrestin-2 (Promega) plus 0.9 μg of pcDNA3.1 for 24 h. The cells were detached with EDTA, resuspended in HBSS, and furimazine (Promega) was added at a 1:50 dilution from the manufacturer's pre-prepared stock. After dispensing into 96-well white plates, a baseline read of the luminescent signals was serially recorded for 5 min using a FlexStation 3 instrument at 37 °C before the indicated concentration of ligand was added, after which the signals were repeatedly recorded for 30 min. […] Bias was calculated using two approaches. First, the log max/EC50 method was used, with the ratio of Emax to EC50 from 3-parameter fits for each ligand used to quantify agonism. After log10 transformation, responses were expressed relative to the reference agonist on a per assay basis to obtain Δlog(Emax/EC50) for each pathway. Pathway-specific values were then expressed relative to each other to obtain ΔΔlog(Emax/EC50), that is, the log bias factor. Second, a method derived from kinetic curve fitting was used. Here, kinetic responses for a single maximal agonist concentration were normalised at each time point to the vehicle response prior to curve fitting. Mini-Gs responses were fitted using the one-phase exponential association equation in Prism 8.0. β-arrestin-2 responses were fitted using the biexponential equation described in [29]. […] Pathway-specific values were then expressed relative to each other to obtain ΔΔlog kτ , that is, the log bias factor.

T2 sequence (P43220 24-463): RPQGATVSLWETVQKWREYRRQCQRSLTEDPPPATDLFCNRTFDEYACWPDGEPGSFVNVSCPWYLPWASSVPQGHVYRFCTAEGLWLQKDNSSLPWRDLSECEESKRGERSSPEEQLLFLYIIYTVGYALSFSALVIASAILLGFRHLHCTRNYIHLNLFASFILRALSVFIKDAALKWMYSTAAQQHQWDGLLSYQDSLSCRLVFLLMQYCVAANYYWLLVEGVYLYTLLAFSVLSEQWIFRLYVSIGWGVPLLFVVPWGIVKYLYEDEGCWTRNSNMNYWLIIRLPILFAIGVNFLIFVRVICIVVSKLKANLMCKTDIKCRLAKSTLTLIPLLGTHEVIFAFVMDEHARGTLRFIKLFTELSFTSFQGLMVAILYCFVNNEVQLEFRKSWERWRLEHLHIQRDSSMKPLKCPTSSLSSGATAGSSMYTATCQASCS
T1 sequence (P43220 24-463): as above
Sequence of GCGR (P47871 26-477): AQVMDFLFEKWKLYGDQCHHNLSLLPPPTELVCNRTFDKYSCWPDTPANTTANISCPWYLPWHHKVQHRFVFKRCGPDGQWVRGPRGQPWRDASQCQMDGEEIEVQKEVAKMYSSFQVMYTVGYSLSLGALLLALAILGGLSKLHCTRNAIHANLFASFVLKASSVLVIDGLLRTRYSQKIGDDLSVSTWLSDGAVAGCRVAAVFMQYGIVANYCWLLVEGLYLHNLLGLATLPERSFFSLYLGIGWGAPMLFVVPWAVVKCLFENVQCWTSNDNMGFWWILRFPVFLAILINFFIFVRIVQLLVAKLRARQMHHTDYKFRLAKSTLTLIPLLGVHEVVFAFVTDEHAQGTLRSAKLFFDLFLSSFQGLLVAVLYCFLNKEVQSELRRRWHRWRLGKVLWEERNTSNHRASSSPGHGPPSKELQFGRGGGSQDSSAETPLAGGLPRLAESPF

As for `CC[C@H](C)[C@H](NC(=O)[C@H](Cc1ccccc1)NC(=O)[C@H](CCC(=O)O)NC(=O)[C@H](CCC(N)=O)NC(=O)[C@H](C)NC(=O)[C@H](CCCNC(=N)N)NC(=O)[C@H](CCCCN)NC(=O)[C@H](C)NC(=O)[C@H](CC(=O)O)NC(=O)[C@H](CC(C)C)NC(=O)[C@H](Cc1ccc(O)cc1)NC(=O)[C@H](CCCCN)NC(=O)[C@H](CO)NC(=O)[C@H](Cc1ccc(O)cc1)NC(=O)[C@H](CC(=O)O)NC(=O)[C@H](CO)NC(=O)[C@@H](NC(=O)[C@H](Cc1ccccc1)NC(=O)[C@@H](NC(=O)CNC(=O)[C@H](Cc1c[nH]cn1)NC(=O)C(C)(C)NC(=O)[C@@H](N)Cc1c[nH]cn1)[C@@H](C)O)[C@@H](C)O)C(=O)N[C@@H](CCC(=O)O)C(=O)N[C@@H](Cc1c[nH]c2ccccc12)C(=O)N[C@@H](CC(C)C)C(=O)N[C@@H](CC(C)C)C(=O)N[C@@H](C)C(=O)NCC(=O)N[C@@H](Cc1c[nH]cn1)C(=O)N[C@@H](Cc1c[nH]cn1)C(=O)N[C@@H](Cc1c[nH]cn1)C(=O)N[C@@H](Cc1c[nH]cn1)C(=O)N[C@@H](Cc1c[nH]cn1)C(=O)N1CCC[C@H]1C(=O)N[C@@H](CO)C(=O)N[C@@H](Cc1c[nH]c2ccccc12)C(=O)O` [SRB103H] (H-H[Aib]HGTFTSDYSKYLDAKRAQEFIEWLLAGHHHHHPSW-OH), the EC50 in experiment [1] was 7.94 nM; in experiment [2] it was 20 nM; in experiment [3], 0.316 nM; in experiment [4], 31.6 nM; in experiment [5] it was 398 nM. The values for the Emax in experiment [3], in experiment [4] and in experiment [5] were 99 ± 4%, 100% and 100%, respectively.

Consider `CC[C@H](C)[C@H](NC(=O)[C@H](Cc1ccccc1)NC(=O)[C@H](CCC(=O)O)NC(=O)[C@H](CCC(N)=O)NC(=O)[C@H](C)NC(=O)[C@H](CCCNC(=N)N)NC(=O)[C@H](CCCCN)NC(=O)[C@H](C)NC(=O)[C@H](CC(=O)O)NC(=O)[C@H](CC(C)C)NC(=O)[C@H](Cc1ccc(O)cc1)NC(=O)[C@H](CCCCN)NC(=O)[C@H](CO)NC(=O)[C@H](Cc1ccc(O)cc1)NC(=O)[C@H](CC(=O)O)NC(=O)[C@H](CO)NC(=O)[C@@H](NC(=O)[C@H](Cc1ccccc1)NC(=O)[C@@H](NC(=O)CNC(=O)[C@H](CCC(N)=O)NC(=O)C(C)(C)NC(=O)[C@@H](N)Cc1c[nH]cn1)[C@@H](C)O)[C@@H](C)O)C(=O)N[C@@H](CCC(=O)O)C(=O)N[C@@H](Cc1c[nH]c2ccccc12)C(=O)N[C@@H](CC(C)C)C(=O)N[C@@H](CC(C)C)C(=O)N[C@@H](C)C(=O)NCC(=O)N[C@@H](Cc1c[nH]cn1)C(=O)N[C@@H](Cc1c[nH]cn1)C(=O)N[C@@H](Cc1c[nH]cn1)C(=O)N[C@@H](Cc1c[nH]cn1)C(=O)N[C@@H](Cc1c[nH]cn1)C(=O)N1CCC[C@H]1C(=O)N[C@@H](CO)C(=O)N[C@@H](Cc1c[nH]c2ccccc12)C(=O)O` [SRB103Q] (H-H[Aib]QGTFTSDYSKYLDAKRAQEFIEWLLAGHHHHHPSW-OH), for which the EC50 in experiment [1] was 2.51 nM; in experiment [2] it was 20 nM; in experiment [3], 0.316 nM; in experiment [4] it was 50.1 nM; in experiment [5], 200 nM. Moreover, the Emax in experiment [3] amounted to 103 ± 2%; in experiment [4], 77 ± 2%; in experiment [5] it was 60 ± 2%.

In general, Emax refers to the maximal effect, on the per cent scale that the assay sets.
